According to patent US9642819B2, “Low dosage serotonin 5-HT2A receptor agonist to suppress inflammation” (BOARD OF SUPERVISORS OF LOUISIANA STATE UNIVERSITY AND …, priority 2008, dated 2017):
pIC50: −log10 of the molar value.

How the values were obtained:
[1] = test system: nuclear translocation of p65; assay: Nuclear translocation of NF-κB subunit p65 in RASM cells; assay type: cell-based, rat; conditions: 1 nM, 24 hours or one hour before or together with TNF-α 10 ng/ml
Procedure: Nuclear Translocation of p65. RASM cells were grown in M-199 medium+10% FBS until 50% confluent in 8 well chamber slides. Cells were treated with 1 nM (R)-DOI for various times as indicated, and TNF-α (10 ng/ml; tumor necrosis factor alpha) added. Thirty minutes after TNF-α treatment, cells were fixed and processed with rabbit anti p65 primary and Alexafluor 488-conjugated goat secondary antibodies as described in Zerfaoui et al. (2008) (Zerfaoui et al., 2008). Fluorescent signal was visualized on a Leica DMRA2 fluorescent microscope.
Both ICAM-1 and VCAM-1 gene transcription during inflammatory processes is regulated by the transcription factor NF-κB (Collins et al., 1995). During this process, NF-κB must be activated, and then translocated from the cytoplasm to the nucleus, where it promotes gene transcription. To investigate whether 5-HT2A receptor stimulated inhibition of NF-κB activation and translocation might be a possible mechanism for blockade of proinflammatory gene expression changes, a series of immunohistochemical experiments were conducted examining p65 translocation in RASM cells. TNF-α treatment for 30 minutes caused the expected dramatic shift in localization of the p65 subunit of NF-κB from the cytoplasm to the nucleus (FIG. 7A). […]

[2] = test system: ICAM-1 gene expression; assay: TNF-α induced ICAM-1 gene expression in rat C6 glioma cells; assay type: cell-based; conditions: 1 nM and 50 nM prior to TNF-α
Procedure: Experiments were conducted to analyze for the effect of 5-HT2A receptor activation on proinflammatory marker expression in other cell types. Human neuroblastoma cells (SHSY5Y) and rat glioma cells (C6) can be obtained from the American Type Culture Collection (Manassas, Va.), but were provided Purdue University. The cells were grown in DMEM+10% FBS. DMEM was made and provided by the Cell and Molecular Core of the Mentoring in Cardiovascular Biology COBRE center at LSUHSC-NO. FBS was purchased from Invitrogen (Carlsbad, Calif.). Primary rat aortic endothelial cells were prepared fresh and provided by the Cell and Molecular Core of the Mentoring in Cardiovascular Biology COBRE center at LSUHSC-NO. Cells were tested at passages 3-4. Cells were grown in endothelial cell growth medium (Cell Applications, Inc.). Primary rat bronchoaveolar macrophage cells were obtained by lung lavage from rats and used at day 3 or 4 post plating in DMEM+10% FBS.
All treatments with 5-HT2A receptor agonists occurred 1 hour prior to the addition of TNF-alpha (10 ng/ml) or LPS (100 ng or 1 mg) depending on the experiment. All RNA isolations, cDNA synthesis, QPCR gene expression assays examining ICAM1, VCAM1, and IL6, and data analysis were performed as described above in Example 1, except the primers were different for the human cell experiment. […]

[3] = test system: VCAM-1 gene expression; assay: TNF-α induced VCAM-1 gene expression in primary rat aortic smooth muscle cells; assay type: cell-based; conditions: RASM passage 4, media with FBS, 24 h pretreatment, TNF-α 10 ng/ml, read-out: IC50 for proinflammatory gene expression inhibition for VCAM-1
Procedure: RASM cells and treatment. Rat aortic smooth muscle (RASM) cells were isolated from adult 180 g male Sprague-Dawley rats and provided by the Cell and Molecular Core Facility in the Department of Pharmacology at LSUHSC-NO. Isolated RASM cells were grown in M-199 media containing 10% fetal bovine serum (Gibco), 100 units/mL penicillin, and 100 µg/mL streptomycin, and incubated at 37° C. in 5% CO2. Cells for all assays were used between passages 3 and 5. Prior to treatments, cells were grown in M-199 media with 10% fetal bovine serum (FBS) until 30-50% confluent. […]
RNA isolation and Quantitative Realtime-PCR. […]
The sequences of primers used are: 5-HT2AR (5-hydroxytryptamine 2A receptor): forward primer 5′-[…]-3′ (SEQ ID NO: 1), reverse primer, 5′[…]-3′ (SEQ ID NO: 2); ICAM-1 (intracellular adhesion molecule 1): forward primer, 5′-[…]-3′ (SEQ ID NO: 3, reverse primer, 5′-[…]-3′ (SEQ ID NO: 4); VCAM-1 (vascular adhesion molecule 1): forward primer, 5′-[…]-3′ (SEQ ID NO: 5), reverse primer, 5′-[…]-3′ (SEQ ID NO: 6); IL-6 (interleukin-6): forward primer, 5′-[…] […]-3′ (SEQ ID NO: 7), reverse primer, 5′-[…]-3′ (SEQ ID NO: 8); and cyclophillin B (control amplicon): forward primer, 5′-[…]-3′ (SEQ ID NO: 9), reverse primer, 5′-[…]-3′ (SEQ ID NO: 10). […] Quantitative determination of gene expression levels using a 2-step cycling protocol was performed on a MyIQ-5 Cycler (Bio-Rad, Hercules Calif.). […]

COc1cc(C[C@@H](C)N)c(OC)cc1I [(R)-DOI, (R)-1-(2,5-dimethoxy-4-iodophenyl)-2-aminopropane]
effect on TNF-α induced p65 nuclear translocation [1]: completely blocked
effect on ICAM-1 gene expression in rat glioma cells [2]: blocked
pIC50 [3]: 10.92
